In patent US5541175A, “Cephalosporin antibiotics” (Lucky, Ltd., priority 1993, dated 1996):
Converted amounts (≈) assume the structure as drawn. Like-named read-outs stand apart in the source and are kept apart here.

Tests used:
[1] = Pharmacokinetic properties in rats (blood concentration by agar well biological assay); parameters: species or system SD rats (male); conditions: rat, in vivo, iv, 20 mg/kg
Procedure: The pharmacokinetic properties of the compound of the present invention were determined using SD rats (.male.) weighing 230±10 g. Specifically,the test samples were injected into femoral vein in an amount of 20 mg/kg to 4 to 5 test animals. Blood was taken from femoral vein 1, 2.5, 5, 10, 20, 40, 60, 120 and 180 minutes after administration and then subjected to a biological assay using agar well method to measure the blood concentration.

[2] = system: Pseudomonas aeruginosa 10145; assay: Minimum inhibitory concentration (agar 2-fold dilution); assay type: cell-based; conditions: Pseudomonas aeruginosa; P. aeruginosa 10145; Muller-Hinton agar, 37° C., 20 hours; read-out: Minimum Inhibitory Concentration
Procedure: (§1) The minimum inhibitory concentration was determined by diluting the test compounds according to 2-fold dilution, suspending them in Muller-Hinton agar medium, inoculating 2 μl of the suspension containing the test strains having 10^7 CFU (Colony Forming Unit) per 1 ml into the medium and then culturing the test strains at 37° C. for 20 hours.

[3] = system: Klebsiella aerogenes SHV-1 1976E; assay: as above; assay type: cell-based; conditions: SHV11976E, K. aerogenes SHV-1 1976E, Muller-Hinton agar, 37° C., 20 hours
Procedure: as §1

Staphylococcus aureus 77 = assay: as above; assay type: cell-based; conditions: Staphylococcus aureus; S. aureus 77; Muller-Hinton agar, 37° C., 20 hours; read-out: Minimum Inhibitory Concentration
Procedure: as §1

Proteus vulgaris 6059A = assay: as above; assay type: cell-based; conditions: P. vulgaris 6059A, Muller-Hinton agar, 37° C., 20 hours, read-out: Minimum Inhibitory Concentration
Procedure: as §1

Enterobacter cloacae P99 = assay: as above; assay type: cell-based; conditions: P99, 20 h, read-out: Minimum Inhibitory Concentration
Procedure: as §1

[4] = system: Staphylococcus aureus giorgio; assay: as above; assay type: cell-based; conditions: read-out: Minimum Inhibitory Concentration
Procedure: as §1

[5] = system: Escherichia coli TEM3 3455E; assay: as above; assay type: cell-based; conditions: TEM33455E, 20 h, read-out: Minimum Inhibitory Concentration
Procedure: as §1

[6] = system: Enterobacter cloacae IND + VE 1194E; assay: as above; assay type: cell-based; conditions: E. cloacae IND + VE 1194E, Muller-Hinton agar, 37° C., 20 hours, read-out: Minimum Inhibitory Concentration
Procedure: as §1

[7] = system: Escherichia coli TEM5 3739E; assay: as above; assay type: cell-based; conditions: TEM53739E, 20 h, read-out: Minimum Inhibitory Concentration
Procedure: as §1

Escherichia coli 10536 = assay: as above; assay type: cell-based; conditions: Escherichia coli; E. coli 10536; Muller-Hinton agar, 37° C., 20 hours; read-out: Minimum Inhibitory Concentration
Procedure: as §1

[8] = system: Serratia marcescens 1826E; assay: as above; assay type: cell-based; conditions: S. marcescens 1826E, Muller-Hinton agar, 37° C., 20 hours, read-out: Minimum Inhibitory Concentration
Procedure: as §1

[9] = system: Escherichia coli TEM1 1193E; assay: as above; assay type: cell-based; conditions: TEM11193E, 20 h, read-out: Minimum Inhibitory Concentration
Procedure: as §1

[10] = system: Klebsiella aerogenes K1 + 1082E; assay: as above; assay type: cell-based; conditions: 20 h, read-out: Minimum Inhibitory Concentration
Procedure: as §1

[11] = system: Streptococcus faecalis 29212A; assay: as above; assay type: cell-based; conditions: Enterococcus faecalis; S. faecalis 29212A; Muller-Hinton agar, 37° C., 20 hours; read-out: Minimum Inhibitory Concentration
Procedure: as §1

[12] = system: Staphylococcus aureus epidermidis 887E; assay: as above; assay type: cell-based; conditions: S. aureus epidermidis 887E, Muller-Hinton agar, 37° C., 20 hours, read-out: Minimum Inhibitory Concentration
Procedure: as §1

[13] = system: Escherichia coli TEM9 2639E; assay: as above; assay type: cell-based; conditions: TEM92639E, 20 h, read-out: Minimum Inhibitory Concentration
Procedure: as §1

[14] = system: Citrobacter diversus 2046E; assay: as above; assay type: cell-based; conditions: Citrobacter koseri; C. diversus 2046E; Muller-Hinton agar, 37° C., 20 hours; read-out: Minimum Inhibitory Concentration
Procedure: as §1

[15] = system: Staphylococcus aureus 241; assay: as above; assay type: cell-based; conditions: Staphylococcus aureus; S. aureus 241; Muller-Hinton agar, 37° C., 20 hours; read-out: Minimum Inhibitory Concentration
Procedure: as §1

Escherichia coli 3190Y = assay: as above; assay type: cell-based; conditions: read-out: Minimum Inhibitory Concentration
Procedure: as §1

[16] = system: Pseudomonas aeruginosa 1912E; assay: as above; assay type: cell-based; conditions: P. aeruginosa 1912E, Muller-Hinton agar, 37° C., 20 hours, read-out: Minimum Inhibitory Concentration
Procedure: as §1

[17] = system: Acinetobacter calcoaceticus 15473A; assay: as above; assay type: cell-based; conditions: A. calcoaceticus 15473A, Muller-Hinton agar, 37° C., 20 hours, read-out: Minimum Inhibitory Concentration
Procedure: as §1

[18] = system: Salmonella typhimurium 14028A; assay: as above; assay type: cell-based; conditions: Salmonella enterica; S. typhimurium 14028A; Muller-Hinton agar, 37° C., 20 hours; read-out: Minimum Inhibitory Concentration
Procedure: as §1

[19] = system: Escherichia coli TEM7 3457E; assay: as above; assay type: cell-based; conditions: TEM73457E, 20 h, read-out: Minimum Inhibitory Concentration
Procedure: as §1

Escherichia coli 851E = assay: as above; assay type: cell-based; conditions: E. coli 851E, Muller-Hinton agar, 37° C., 20 hours
Procedure: as §1

[20] = system: Staphylococcus aureus 6538P; assay: as above; assay type: cell-based; conditions: S. aureus 6538P, Muller-Hinton agar, 37° C., 20 hours, read-out: Minimum Inhibitory Concentration
Procedure: as §1

[21] = system: Pseudomonas aeruginosa 6065; assay: as above; assay type: cell-based; conditions: Pseudomonas aeruginosa; P. aeruginosa 6065; Muller-Hinton agar, 37° C., 20 hours; read-out: Minimum Inhibitory Concentration
Procedure: as §1

[22] = S. aureus giorgio, Muller-Hinton agar, 37° C., 20 hours
[23] = E. coli 3190Y, Muller-Hinton agar, 37° C., 20 hours

Row | SMILES | MIC [2] [µg/mL] | MIC [3] [µg/mL] | MIC (Staphylococcus aureus 77) [µg/mL] | MIC (Proteus vulgaris 6059A) [µg/mL] | MIC (Enterobacter cloacae P99) [µg/mL] | MIC [5] [µg/mL] | MIC [6] [µg/mL] | MIC [7] [µg/mL] | MIC (Escherichia coli 10536) [µg/mL] | MIC [8] [µg/mL] | MIC [9] [µg/mL] | MIC [10] [µg/mL] | MIC [11] [µg/mL] | MIC [12] [µg/mL] | MIC [13] [µg/mL] | MIC [14] [µg/mL] | MIC [15] [µg/mL] | MIC [16] [µg/mL] | MIC [17] [µg/mL] | MIC [18] [µg/mL] | further results
1 | Nc1cc[n+](C/C=C/C2=C(C(=O)[O-])N3C(=O)[C@@H](NC(=O)/C(=N\O[C@H](C(=O)O)c4ccc(O)c(O)c4)c4csc(N)n4)[C@H]3SC2)cn1 [Compound I-2a, 7-[(Z)-2-(2-aminothiazol-4-yl)-2-(α-carboxy-3,4-dihydroxybenzyloxyimino)acetamido]-3-[(E)-3-(4-aminopyrimidinium-1-yl)-1-propen-1-yl]-3-cephem-4-carboxylate] | 0.25 (≈ 0.374 µM) | 0.5 (≈ 0.748 µM) | 4 (≈ 5.98 µM) | 0.063 (≈ 0.0942 µM) | 8 (≈ 12 µM) | 0.063 (≈ 0.0942 µM) | 1 | 0.5 (≈ 0.748 µM) | 0.016 (≈ 0.0239 µM) | 0.5 (≈ 0.748 µM) | 0.063 (≈ 0.0942 µM) | 0.13 (≈ 0.194 µM) | 4 (≈ 5.98 µM) | 32 (≈ 47.9 µM) | 1 (≈ 1.5 µM) | 0.13 (≈ 0.194 µM) | 128 (≈ 191 µM) | 0.5 (≈ 0.748 µM) | 0.5 (≈ 0.748 µM) | 0.03 (≈ 0.0449 µM) | AUC [1]: 53600 ng·h/mL; half-life [1]: 55 min; MIC ([4]; 20 h): 0.25 µg/mL (≈ 0.374 µM); MIC (Escherichia coli 3190Y; 3190Y, 20 h): 0.063 µg/mL (≈ 0.0942 µM); MIC [19]: 0.031 µg/mL (≈ 0.0464 µM); MIC (Escherichia coli 851E): 0.063 µg/mL (≈ 0.0942 µM); MIC [20]: 0.5 µg/mL (≈ 0.748 µM); MIC [21]: 4 µg/mL (≈ 5.98 µM)
2 | Nc1cc(N)[n+](C/C=C/C2=C(C(=O)[O-])N3C(=O)[C@@H](NC(=O)/C(=N\O[C@H](C(=O)O)c4ccc(O)c(O)c4)c4csc(N)n4)[C@H]3SC2)cn1 [Compound I-1a, 7-[(Z)-2-(2-aminothiazol-4-yl)-2-(α-carboxy-3,4-dihydroxybenzyloxyimino)acetamido]-3-[(E)-3-(4,6-diaminopyrimidinium-1-yl)-1-propen-1-yl]-3-cephem-4-carboxylate] | 0.25 (≈ 0.366 µM) | 0.13 (≈ 0.19 µM) | 4 (≈ 5.85 µM) | 0.063 (≈ 0.0921 µM) | 32 (≈ 46.8 µM) | 0.13 (≈ 0.19 µM) | 4 | 0.5 (≈ 0.731 µM) | ≤ 0.008 | 0.25 (≈ 0.366 µM) | 0.031 (≈ 0.0453 µM) | 0.063 (≈ 0.0921 µM) | 4 (≈ 5.85 µM) | 64 (≈ 93.6 µM) | 2 (≈ 2.93 µM) | 0.13 (≈ 0.19 µM) | 64 (≈ 93.6 µM) | 0.5 (≈ 0.731 µM) | 1 (≈ 1.46 µM) | 0.016 (≈ 0.0234 µM) | AUC [1]: 32700 ng·h/mL; half-life [1]: 34 min; MIC [4, 22]: 0.5 µg/mL (≈ 0.731 µM); MIC (Escherichia coli 3190Y; [23]): 0.031 µg/mL (≈ 0.0453 µM); MIC [19]: 0.13 µg/mL (≈ 0.19 µM); MIC (Escherichia coli 851E): 0.031 µg/mL (≈ 0.0453 µM); MIC [20]: 0.5 µg/mL (≈ 0.731 µM); MIC [21]: 1 µg/mL (≈ 1.46 µM)
3 | Nc1cc[n+](C/C=C/C2=C(C(=O)[O-])N3C(=O)[C@@H](NC(=O)/C(=N\O[C@@H](C(=O)O)c4ccc(O)c(O)c4)c4csc(N)n4)[C@H]3SC2)cn1 [Compound I-2b, 7-[(Z)-2-(2-aminothiazol-4-yl)-2-(α-carboxy-3,4-dihydroxybenzyloxyimino)acetamido]-3-[(E)-3-(4-aminopyrimidinium-1-yl)-1-propen-1-yl]-3-cephem-4-carboxylate] | 8 (≈ 12 µM) | 1 (≈ 1.5 µM) | 2 (≈ 2.99 µM) | 0.5 (≈ 0.748 µM) | 32 (≈ 47.9 µM) | 0.25 (≈ 0.374 µM) | 16 | 0.1 (≈ 0.15 µM) | 0.13 (≈ 0.194 µM) | 1 (≈ 1.5 µM) | 0.25 (≈ 0.374 µM) | 2 (≈ 2.99 µM) | 4 (≈ 5.98 µM) | 8 (≈ 12 µM) | 0.5 (≈ 0.748 µM) | 4 (≈ 5.98 µM) | 128 (≈ 191 µM) | 8 (≈ 12 µM) | 2 (≈ 2.99 µM) | 0.25 (≈ 0.374 µM) | MIC [4, 22]: 0.25 µg/mL (≈ 0.374 µM); MIC (Escherichia coli 3190Y; [23]): 0.13 µg/mL (≈ 0.194 µM); MIC [19]: 0.25 µg/mL (≈ 0.374 µM); MIC (Escherichia coli 851E): 0.13 µg/mL (≈ 0.194 µM); MIC [20]: 0.5 µg/mL (≈ 0.748 µM); MIC [21]: 64 µg/mL (≈ 95.7 µM)
4 | Nc1nc(/C(=N/O[C@@H](C(=O)O)c2ccc(O)c(O)c2)C(=O)N[C@@H]2C(=O)N3C(C(=O)[O-])=C(/C=C/C[n+]4cnc(N)c5c4CCC5)CS[C@H]23)cs1 [Compound I-3b, 7-[(Z)-2-(2-aminothiazol-4-yl)-2-(α-carboxy-3,4-dihydroxybenzyloxyimino)acetamido]-3-[(E)-3-(4-amino-5,6-cyclopentanopyrimidinium-1-yl)-1-propen-1-yl]-3-cephem-4-carboxylate] | 8 (≈ 11.3 µM) | 1 (≈ 1.41 µM) | 4 (≈ 5.64 µM) | 1 (≈ 1.41 µM) | 64 (≈ 90.3 µM) | 0.5 (≈ 0.705 µM) | 32 | 2 (≈ 2.82 µM) | 0.13 (≈ 0.183 µM) | 4 (≈ 5.64 µM) | 0.25 (≈ 0.353 µM) | 1 (≈ 1.41 µM) | 8 (≈ 11.3 µM) | 64 (≈ 90.3 µM) | 2 (≈ 2.82 µM) | 4 (≈ 5.64 µM) | > 128 | 8 (≈ 11.3 µM) | 4 (≈ 5.64 µM) | 0.13 (≈ 0.183 µM) | MIC [4, 22]: 0.5 µg/mL (≈ 0.705 µM); MIC (Escherichia coli 3190Y; [23]): 0.25 µg/mL (≈ 0.353 µM); MIC [19]: 0.5 µg/mL (≈ 0.705 µM); MIC (Escherichia coli 851E): 0.25 µg/mL (≈ 0.353 µM); MIC [20]: 0.5 µg/mL (≈ 0.705 µM); MIC [21]: 64 µg/mL (≈ 90.3 µM)
